The molecules below were run against T1, NaV1.7 (Homo sapiens, UniProt Q15858) (assay: Whole cell patch clamp, internal block of NaV1.7 current). Conditions: % inhibition at 1 μM test concentration, compound in internal solution, manual whole cell patch clamp.
T1 construct: expressed in transfected cells; host or cells: HEK293, tetracycline-inducible
Assay type: cell-based
Experimental: NaV1.7 was expressed upon induction with tetracycline. Cells were cultured in DMEM containing 10% dialyzed Fetal Bovine Serum (VWR, Radnor, Pa.), 1% Glutamax (VWR, Radnor, Pa.), 1% Penicillin-Streptomycin (VWR, Radnor, Pa.), 100 mg/L Hygromycin (Thermo Fisher Scientific, Waltham, Mass. and 5 mg/L Blasticidin (Alfa Aesar, Haverhill, Mass.). Cells were grown and maintained at 37° C. in a humidified environment containing 10% C02 in air. Cells were detached from the culture flask for passage and harvested using 0.05% Trypsin-EDTA (Thermo Fisher Scientific, Waltham, Mass.). To induce NaV1.7, cells were induced with tetracycline (0.1-1 μg/mL, IBI Scientific, Peosta, Iowa) the day before recording and plated onto 24-well plates. Cells were washed with DPBS (VWR, Radnor, Pa.), trypsinized and then triturated five times in 10 mL of growth media to break apart cell aggregates. For one 24-well plate, 2 mL of cell suspension was mixed with 23 mL of fresh growth media and 0.1-1 μg/mL tetracycline added. 1 ml of mixed media with cells was then added to each well of a 24-well plate, with a 12 mm coverslip already placed in the bottom of the well. Cells were then incubated in 37° C. and 10% CO2 overnight.
The intracellular solution contained the following (in mM) CsCl 135, NaCl 10, EGTA 10, HEPES 10, MgCl2 2, adjusted to pH 7.2 with CsOH. The external solution was a normal Ringer solution containing (in mM) NaCl 155, HEPES 10, glucose 10, KCl 3.5, CaCl2 1.5, MgCl2 1 adjusted to pH 7.4 with NaOH. CsCl is from Alfa Aesar, Haverhill, Mass. All other chemicals are from Sigma-Aldrich, St. Louis, Mo. In order to test the degree of internal block by test compounds the compounds were dissolved in internal solution at the indicated test concentration. […] In order to test the degree of external block by test compounds the compounds were dissolved in external solution at the indicated test concentration.
18-24 hours after cells were induced with tetracycline, coverslips were placed into a chamber filled with Normal Ringer solution at room temperature and the chamber placed on a microscope. Pipettes were pulled from borosilicate glass on a P97 puller (Sutter Instrument, Novato, Calif.) and polished with a MF-830 Microforge (Narishige International USA, Inc, Amityville, N.Y.) to have a resistance of 1.5-2.5 MΩ when filled with CsCl internal solution at room temperature. Healthy cells (those that are round and translucent with no visible blemishes) were chosen for seal formation. A seal was formed between the pipette and the cell, and a brief pulse of suction was used to “break in” and establish the whole-cell configuration. The membrane potential was held at −100 mV before the voltage protocol began. Only cells with series resistance between 1.5-5 MΩ were retained for analysis. The voltage protocol was as follows: Cells were held at −100 mV for 12 ms followed by a hyperpolarizing step to −105 mV for 12 ms to monitor the leak. Cells were then stepped back to −100 mV for 40 ms. Cells were then depolarized to −20 mV for 10 ms and then returned to −100 mV for 26 ms (The FIGURE).
Once the recording was started, the voltage protocol was run at 30 second intervals for 5 minutes to get a stable baseline. This was followed by four 30-second periods of 5 Hz stimulation of the same voltage protocol separated by 1 minute of rest which was then followed by 0.33 Hz stimulation after the last train. Currents were recorded using PatchMaster software with Heka EPC10 (HEKA Electronics, Lambrecht, Germany). Only cells with inward current amplitudes at −20 mV between 400 pA and 4 nA were accepted. In addition, cells having leak currents greater than 10% of their current amplitudes were discarded.
The data was plotted using the Patchmaster software (HEKA Electronics, Lambrecht, Germany) and analyzed by plotting the minimum current during the voltage step to −20 mV (peak inward current) as a function of time. […]

T1 sequence (Q15858 whole entry): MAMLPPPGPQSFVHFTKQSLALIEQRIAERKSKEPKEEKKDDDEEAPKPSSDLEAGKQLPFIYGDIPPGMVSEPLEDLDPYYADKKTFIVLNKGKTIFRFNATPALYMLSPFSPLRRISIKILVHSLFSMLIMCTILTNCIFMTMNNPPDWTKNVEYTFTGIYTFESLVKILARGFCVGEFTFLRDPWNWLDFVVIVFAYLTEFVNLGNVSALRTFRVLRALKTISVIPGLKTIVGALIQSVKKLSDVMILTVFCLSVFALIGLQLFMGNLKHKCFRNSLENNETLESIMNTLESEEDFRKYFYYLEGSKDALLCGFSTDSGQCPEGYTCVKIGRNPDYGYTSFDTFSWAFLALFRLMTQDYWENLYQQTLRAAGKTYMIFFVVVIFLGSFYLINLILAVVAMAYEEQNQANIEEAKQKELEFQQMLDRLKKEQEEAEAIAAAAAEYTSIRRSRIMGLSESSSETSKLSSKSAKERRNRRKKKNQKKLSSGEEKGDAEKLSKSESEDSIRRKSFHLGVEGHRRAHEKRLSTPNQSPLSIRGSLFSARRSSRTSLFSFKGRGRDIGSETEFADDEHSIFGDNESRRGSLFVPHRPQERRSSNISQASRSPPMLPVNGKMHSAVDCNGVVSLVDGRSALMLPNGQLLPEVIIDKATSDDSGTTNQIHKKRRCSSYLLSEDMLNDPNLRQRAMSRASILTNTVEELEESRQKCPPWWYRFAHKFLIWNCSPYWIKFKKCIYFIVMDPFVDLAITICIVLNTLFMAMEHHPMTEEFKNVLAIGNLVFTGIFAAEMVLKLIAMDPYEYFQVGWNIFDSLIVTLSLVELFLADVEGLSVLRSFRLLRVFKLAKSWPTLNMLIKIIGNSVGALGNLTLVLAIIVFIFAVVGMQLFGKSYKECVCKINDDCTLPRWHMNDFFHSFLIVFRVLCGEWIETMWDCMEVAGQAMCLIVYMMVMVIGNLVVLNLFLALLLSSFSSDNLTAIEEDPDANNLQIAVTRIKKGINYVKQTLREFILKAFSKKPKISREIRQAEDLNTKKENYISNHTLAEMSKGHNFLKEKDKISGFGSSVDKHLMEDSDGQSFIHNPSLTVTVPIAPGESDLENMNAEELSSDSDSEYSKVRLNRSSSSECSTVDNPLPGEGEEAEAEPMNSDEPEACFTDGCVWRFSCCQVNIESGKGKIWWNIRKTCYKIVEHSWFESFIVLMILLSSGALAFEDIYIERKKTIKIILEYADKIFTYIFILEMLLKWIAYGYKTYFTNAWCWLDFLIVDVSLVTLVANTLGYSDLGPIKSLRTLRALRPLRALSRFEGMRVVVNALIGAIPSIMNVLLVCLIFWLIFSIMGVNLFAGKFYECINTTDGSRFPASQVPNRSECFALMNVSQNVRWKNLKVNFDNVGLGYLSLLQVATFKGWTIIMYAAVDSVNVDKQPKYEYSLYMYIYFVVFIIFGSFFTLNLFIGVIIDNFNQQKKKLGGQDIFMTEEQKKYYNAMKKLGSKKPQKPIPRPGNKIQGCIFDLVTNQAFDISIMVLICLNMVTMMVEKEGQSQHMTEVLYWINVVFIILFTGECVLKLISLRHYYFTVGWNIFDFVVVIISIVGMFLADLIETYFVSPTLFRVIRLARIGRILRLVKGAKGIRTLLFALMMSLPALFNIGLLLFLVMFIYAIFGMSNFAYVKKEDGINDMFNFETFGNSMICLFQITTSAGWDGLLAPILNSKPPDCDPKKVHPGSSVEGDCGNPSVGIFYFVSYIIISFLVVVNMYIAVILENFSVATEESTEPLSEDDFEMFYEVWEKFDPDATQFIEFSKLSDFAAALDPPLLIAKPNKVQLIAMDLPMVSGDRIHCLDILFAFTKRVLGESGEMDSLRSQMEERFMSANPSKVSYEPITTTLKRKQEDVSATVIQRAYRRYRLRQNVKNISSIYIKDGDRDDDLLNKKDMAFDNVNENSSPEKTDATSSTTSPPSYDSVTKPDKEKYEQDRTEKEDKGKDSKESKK

| Structure (SMILES) | NaV1.7 Intracellular Inhibition |
| --- | --- |
| CCCCOC(=O)C1CCC[N+](CC(=O)Nc2c(C)cccc2C(=O)OC)(Cc2ccccc2)C1.[Br-] (mixture of isomers) [Compound 14] | ++ (70-30%) |
| CCCCOC(=O)C1CCC[N+](CC)(CC(=O)Nc2c(C)cccc2C(=O)OC)C1.[I-] (mixture of isomers) [Compound 15] | ++ (70-30%) |
| CCOC(=O)C1CCC[N+](CC(=O)Nc2c(C)cccc2C(=O)OC)(Cc2ccccc2)C1 (mixture of isomers) [Compound 16] | +++ (90-70%) |
| CC[N+]1(CC(=O)Nc2c(C)cccc2C(=O)OC)CCCC(C(=O)OC2CCCCC2)C1 (mixture of isomers) [Compound 27] | ++ (70-30%) |
| CCCNC(=O)C1CCC[N+](CC(=O)Nc2c(C)cccc2C(=O)OC)(Cc2ccccc2)C1 (mixture of isomers) [Compound 28] | ++ (70-30%) |
| CNC(=O)C1CCC[N+](CC(=O)Nc2c(C)cccc2C(=O)OC)(Cc2ccccc2)C1 (mixture of isomers) [Compound 31] | ++ (70-30%) |
| COC(=O)c1cccc(C)c1NC(=O)C[N+]1(Cc2ccccc2)CCCC(C(=O)N(C)C)C1 (mixture of isomers) [Compound 40] | ++ (70-30%) |
| COC(=O)c1cccc(C)c1NC(=O)C[N+]1(Cc2ccccc2)CCCC(C(=O)N2CCCC2)C1 (mixture of isomers) [Compound 43] | ++ (70-30%) |
| CC[N+]1(CC(=O)Nc2c(C)cccc2C(=O)OC)CCCC(C(=O)N2CCCC2)C1 (mixture of isomers) [Compound 54] | ++ (70-30%) |
| COC(=O)c1cccc(C)c1NC(=O)C[N+]1(Cc2ccccc2)CCCCCC1 [Compound 1] | ++++ (>90%) |
| CCOC(=O)c1cccc(C)c1NC(=O)C[N+]1(Cc2ccccc2)CCCCCC1 [Compound 2] | ++++ (>90%) |
| COC(=O)c1cccc(C)c1NC(=O)C[N+]1(Cc2ccccc2)CCCCC1.[Br-] [Compound 3] | ++ (70-30%) |
| CCOC(=O)c1cccc(C)c1NC(=O)C[N+]1(Cc2ccccc2)CCCCC1.[Br-] [Compound 4] | +++ (90-70%) |
| COC(=O)c1cccc(C)c1NC(=O)C[N+]1(Cc2ccccc2)CCCC1 [Compound 5] | ++ (70-30%) |
| CCCOC(=O)c1cccc(C)c1NC(=O)C[N+]1(Cc2ccccc2)CCCCCC1.[Br-] [Compound 6] | +++ (90-70%) |
| Cc1cccc(C(=O)OC(C)C)c1NC(=O)C[N+]1(Cc2ccccc2)CCCCCC1.[Br-] [Compound 7] | ++++ (>90%) |
| CCOC(=O)c1cccc(C)c1NC(=O)C[N+]1(Cc2ccccc2)CCCC1.[Br-] [Compound 9] | +++ (90-70%) |
| CC[N+]1(CC(=O)Nc2c(C)cccc2C(=O)OC)CCCC(C(=O)OCC(C)C)C1.[I-] (stereo not shown) [Compound 23] | +++ (90-70%) |
| CCCOC(=O)C1CCC[N+](CC)(CC(=O)Nc2c(C)cccc2C(=O)OC)C1.[I-] (stereo not shown) [Compound 26] | ++ (70-30%) |
| COC(=O)c1cccc(C)c1NC(=O)C[N+]1(Cc2ccccc2)CCCC(C(N)=O)C1.[Br-] (stereo not shown) [Compound 30] | ++ (70-30%) |
| COC(=O)c1cccc(C)c1NC(=O)C[N+]1(Cc2ccccc2)CCCC(C(=O)NC(C)C)C1.[Br-] (stereo not shown) [Compound 32] | ++ (70-30%) |
| CCNC(=O)C1CCC[N+](CC(=O)Nc2c(C)cccc2C(=O)OC)(Cc2ccccc2)C1.O=C([O-])C(F)(F)F (stereo not shown) [Compound 33] | ++ (70-30%) |
| COC(=O)c1cccc(C)c1NC(=O)C[N+]1(Cc2ccccc2)CCCC(C(=O)N2CCCCCC2)C1.[Br-] (stereo not shown) [Compound 34] | ++ (70-30%) |
| COC(=O)c1cccc(C)c1NC(=O)C[N+]1(Cc2ccccc2)CCCC(C(=O)NCC(C)C)C1.[Br-] (stereo not shown) [Compound 36] | ++ (70-30%) |
| COC(=O)c1cccc(C)c1NC(=O)C[N+]1(Cc2ccccc2)CCCC(C(=O)NC2CCCC2)C1.[Br-] (stereo not shown) [Compound 41] | + (<30%) |
| CC[N+]1(CC(=O)Nc2c(C)cccc2C(=O)OC)CCCC(C(=O)N2CCCCC2)C1.[I-] (stereo not shown) [Compound 45] | ++ (70-30%) |
| CC[N+]1(CC(=O)Nc2c(C)cccc2C(=O)OC)CCCC(C(=O)NC)C1.[I-] (stereo not shown) [Compound 46] | + (<30%) |
| CC[N+]1(CC(=O)Nc2c(C)cccc2C(=O)OC)CCCC(C(N)=O)C1.[I-] (stereo not shown) [Compound 55] | +++ (90-70%) |
| CC[N+]1(CC(=O)Nc2c(C)cccc2C(=O)OC)CCCC(C(=O)NC2CCCCC2)C1.[I-] (stereo not shown) [Compound 56] | ++ (70-30%) |

The remaining lines, values ahead:

| NaV1.7 Intracellular Inhibition | Structure (SMILES) |
| --- | --- |
| +++ (90-70%) | CNC(=O)C[N+]1(CC(=O)Nc2c(C)cccc2C(=O)OC)CCCC(c2ccccc2)C1.[Br-] (mixture of isomers) [Compound 59] |
| +++ (90-70%) | COC(=O)c1cccc(C)c1NC(=O)C[N+]1(CC(N)=O)CCCC(c2ccccc2)C1 (mixture of isomers) [Compound 61] |
| ++ (70-30%) | CCN(CC)C(=O)C[N+]1(CC(=O)Nc2c(C)cccc2C(=O)OC)CCCC(c2ccccc2)C1 (mixture of isomers) [Compound 62] |
| ++ (70-30%) | COC(=O)C[N+]1(CC(=O)Nc2c(C)cccc2C(=O)OC)CCCC(c2ccccc2)C1 (mixture of isomers) [Compound 64] |
| ++++ (>90%) | CC[N+]1(CC(=O)Nc2c(C)cccc2C(=O)OC)CCCC(c2ccccc2)C1 (mixture of isomers) [Compound 65] |
| +++ (90-70%) | CCc1cccc(C[N+]2(C(CC)C(=O)Nc3c(C)cccc3C(=O)OC)CCCCC2)c1.O=C[O-] (stereo not shown) [Compound 58] |
| ++ (70-30%) | COC(=O)c1cccc(C)c1NC(=O)C[N+]1(CC(=O)N(C)C)CCCC(c2ccccc2)C1.O=C([O-])C(F)(F)F (stereo not shown) [Compound 60] |
| +++ (90-70%) | CCOC(=O)C[N+]1(CC(=O)Nc2c(C)cccc2C(=O)OC)CCCC(c2ccccc2)C1.O=C([O-])C(F)(F)F (stereo not shown) [Compound 63] |
| +++ (90-70%) | COC(=O)c1cccc(C)c1NC(=O)C[n+]1cccc(-c2ccccc2)c1.[Br-] [Compound 66] |
| +++ (90-70%) | CCOC(=O)c1cccc(C)c1NC(=O)C[n+]1cccc(-c2ccccc2)c1 [Compound 67] |
| ++ (70-30%) | COC(=O)c1cccc(C)c1NC(=O)C[n+]1cccn1C1CCCCC1.[Br-] [Compound 69] |
| ++ (70-30%) | Cc1cccc(C(=O)OC(C)(C)C)c1NC(=O)C[n+]1cccc(-c2ccccc2)c1.[Br-] [Compound 71] |
| ++ (70-30%) | Cc1cccc(C(=O)OC(C)(C)C)c1NC(=O)C[n+]1cccn1C1CCCCC1.[Br-] [Compound 72] |

Same assay, conditions: % inhibition at 1 μM test concentration, compound in internal solution, manual whole cell patch clamp; read-out: NaV1.7 Intracellular Inhibition

| inhibition at 1 µM | Structure (SMILES) |
| --- | --- |
| 30 to 70% | CCC(C(=O)Nc1c(C)cccc1C(=O)OC)[N+]1(Cc2ccccc2)CCCCC1 (stereo not shown) [Compound 57] |
